Like-named read-outs stand apart in the source and are kept apart here. One block for each compound: values may come before it.
Columns and labels:
[1] = biological target: T1, baculovirus-expressed ALK (Homo sapiens, UniProt Q9UM73); assay: ALK Kinase Assay (ELISA-type, time-resolved fluorescence); type: biochemical
T1 construct: host or cells: baculovirus expression system
Procedure: (§1) Briefly, each 96-well plate was coated with 100 μL/well of 10 μg/mL substrate (phospholipase C-γ) in Tris-buffered saline (TBS). […] The reaction was initiated by adding enzyme (30 ng/ml ALK) and was allowed to proceed at 37° C. for 15 minutes. Detection of the phosphorylated product was performed by adding 100 μl/well of Eu-N1 labeled PT66 antibody (Perkin Elmer # AD0041).
(§2) Data analysis was performed using ActivityBase (IDBS, Guilford, UK). IC50 values were calculated by plotting percent inhibition versus log10 of the concentration of compound and fitting to the nonlinear regression sigmoidal dose-response (variable slope) equation in XLFit (IDBS, Guilford, UK).

[2] = biological target: T2, c-Met (cytoplasmic domain) (Homo sapiens, UniProt P08581); assay: c-Met Kinase Assay (same methods as for ALK, with modifications); type: biochemical
T2 construct: 10 ng/mL c-Met (cytoplasmic domain, Invitrogen Corporation #PV3143); purchased Invitrogen Corporation PV3143
T2 sequence (P08581 956-1390 limits assumed): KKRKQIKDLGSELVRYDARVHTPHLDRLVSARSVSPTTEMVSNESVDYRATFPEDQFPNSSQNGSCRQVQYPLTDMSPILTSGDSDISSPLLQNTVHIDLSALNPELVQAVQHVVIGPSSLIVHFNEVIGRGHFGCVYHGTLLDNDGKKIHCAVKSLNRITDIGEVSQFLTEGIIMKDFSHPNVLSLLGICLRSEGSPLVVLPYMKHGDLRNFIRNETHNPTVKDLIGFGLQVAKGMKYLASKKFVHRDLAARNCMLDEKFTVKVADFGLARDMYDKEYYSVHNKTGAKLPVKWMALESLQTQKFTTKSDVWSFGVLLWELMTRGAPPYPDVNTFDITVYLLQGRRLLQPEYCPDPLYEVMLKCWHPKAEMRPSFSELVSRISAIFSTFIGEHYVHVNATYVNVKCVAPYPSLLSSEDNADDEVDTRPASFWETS
Procedure: as §1, §2
Reactions were initiated with 10 ng/mL c-Met (cytoplasmic domain, Invitrogen Corporation #PV3143).

[3] = 1 μM ATP (Km level), 30 ng/ml ALK, 37° C., 15 minutes, read-out: ALK Activity (ALK kinase inhibition, IC50 class)
[4] = 1 μM ATP (Km level), 10 ng/mL c-Met, read-out: cMet Activity (c-Met kinase inhibition, IC50 class)
[5] = ALK kinase inhibition, 1 μM ATP, read-out: ALK Activity
[6] = c-Met kinase inhibition, 1 μM ATP, read-out: cMet Activity
[7] = 1 μM ATP (Km level), read-out: ALK Activity (ALK Kinase Inhibition, IC50)
[8] = 1 μM ATP (Km level), read-out: cMet Activity (c-Met Kinase Inhibition, IC50)

T1 sequence (Q9UM73 19-1620): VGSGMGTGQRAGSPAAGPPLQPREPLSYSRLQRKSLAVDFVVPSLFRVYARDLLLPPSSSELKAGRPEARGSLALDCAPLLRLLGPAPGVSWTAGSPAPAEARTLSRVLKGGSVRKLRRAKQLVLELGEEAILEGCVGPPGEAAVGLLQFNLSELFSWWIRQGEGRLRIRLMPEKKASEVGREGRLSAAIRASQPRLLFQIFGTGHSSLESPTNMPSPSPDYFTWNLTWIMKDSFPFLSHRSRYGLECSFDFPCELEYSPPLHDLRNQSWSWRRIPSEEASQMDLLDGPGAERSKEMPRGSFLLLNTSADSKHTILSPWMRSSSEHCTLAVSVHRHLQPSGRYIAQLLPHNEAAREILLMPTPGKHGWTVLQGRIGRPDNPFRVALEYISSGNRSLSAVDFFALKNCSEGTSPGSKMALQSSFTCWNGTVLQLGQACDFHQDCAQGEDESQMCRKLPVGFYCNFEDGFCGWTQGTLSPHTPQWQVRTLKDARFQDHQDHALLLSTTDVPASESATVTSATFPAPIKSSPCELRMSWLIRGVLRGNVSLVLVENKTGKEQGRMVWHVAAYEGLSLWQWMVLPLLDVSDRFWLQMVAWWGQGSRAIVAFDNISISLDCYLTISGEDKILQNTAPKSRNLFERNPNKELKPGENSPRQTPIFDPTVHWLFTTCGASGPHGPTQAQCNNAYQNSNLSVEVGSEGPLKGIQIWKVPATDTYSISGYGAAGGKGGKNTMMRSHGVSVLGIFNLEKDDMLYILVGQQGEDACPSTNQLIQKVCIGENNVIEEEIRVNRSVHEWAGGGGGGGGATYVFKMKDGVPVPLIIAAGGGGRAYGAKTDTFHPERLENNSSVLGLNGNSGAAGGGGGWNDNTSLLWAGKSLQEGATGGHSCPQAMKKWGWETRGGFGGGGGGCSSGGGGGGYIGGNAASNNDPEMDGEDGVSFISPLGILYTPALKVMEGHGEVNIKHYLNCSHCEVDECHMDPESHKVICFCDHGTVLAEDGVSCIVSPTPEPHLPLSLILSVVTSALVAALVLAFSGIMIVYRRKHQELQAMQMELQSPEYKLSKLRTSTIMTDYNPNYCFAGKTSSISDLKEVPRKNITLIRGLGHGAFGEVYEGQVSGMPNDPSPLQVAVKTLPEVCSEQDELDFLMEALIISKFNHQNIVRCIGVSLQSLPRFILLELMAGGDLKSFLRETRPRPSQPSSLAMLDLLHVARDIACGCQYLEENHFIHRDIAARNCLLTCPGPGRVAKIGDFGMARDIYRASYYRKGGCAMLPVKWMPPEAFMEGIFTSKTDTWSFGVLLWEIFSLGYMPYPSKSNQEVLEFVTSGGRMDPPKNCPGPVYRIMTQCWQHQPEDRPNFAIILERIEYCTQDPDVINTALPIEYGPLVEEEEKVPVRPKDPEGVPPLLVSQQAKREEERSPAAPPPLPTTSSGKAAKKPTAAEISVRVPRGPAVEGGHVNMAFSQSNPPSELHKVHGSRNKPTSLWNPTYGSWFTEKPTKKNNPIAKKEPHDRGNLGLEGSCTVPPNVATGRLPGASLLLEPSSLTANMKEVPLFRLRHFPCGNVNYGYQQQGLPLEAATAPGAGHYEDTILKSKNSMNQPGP

Compound: CNC(=O)c1ccccc1Nc1nc(Nc2cc3c(cc2OC)CC(=O)N(CCCN2CCOCC2)CC3)ncc1Cl [Example 1126, 2-{5-Chloro-2-[8-methoxy-3-(3-morpholin-4-yl-propyl)-2-oxo-2,3,4,5-tetrahydro-1H-benzo[d]azepin-7-ylamino]-pyrimidin-4-ylamino}-N-methyl-benzamide]
IC50 [1, 3]: < 100 nM
IC50 [2, 4]: > 10000 nM

Compound: 2-[5-Chloro-2-(2-methyl-3-oxo-2,3,4,5-tetrahydro-1H-benzo[c]azepin-8-ylamino)-pyrimidin-4-ylamino]-N-methyl-benzamide and 2-[5-chloro-2-(2-methyl-3-oxo-2,3-dihydro-1H-benzo[c]azepin-8-ylamino)-pyrimidin-4-ylamino]-N-methyl-benzamide [Example 1798]
IC50 [1, 5]: < 100 nM
IC50 [2, 6]: < 100 nM

Compound: CNC(=O)c1ccccc1Nc1nc(Nc2ccc3c(c2)CCC(N2CCOCC2)CC3)ncc1C(F)(F)F (stereo not shown) [Example 923, N-Methyl-2-[2-(7-morpholin-4-yl-6,7,8,9-tetrahydro-5H-benzocyclohepten-2-ylamino)-5-trifluoromethyl-pyrimidin-4-ylamino]-benzamide]
IC50 [1, 7]: < 100 nM
IC50 [2, 8]: < 100 nM

Compound: CN1CCN(C)c2c(Nc3ncc(Cl)c(N[C@@H]4CCCC[C@H]4NS(C)(=O)=O)n3)cccc2C1=O [Example 542, N-{(1R,2R)-2-[5-Chloro-2-(1,4-dimethyl-5-oxo-2,3,4,5-tetrahydro-1H-benzo[e][1,4]diazepin-9-ylamino)-pyrimidin-4-ylamino]-cyclohexyl} methanesulfonamide]
IC50 [1, 7]: < 100 nM
IC50 [2, 8]: > 10000 nM

Compound: CNC(=O)c1cc(OC)ccc1Nc1nc(Nc2cc3c(cc2OC)CCN(CCOC)CC3)ncc1Cl [Example 621, 2-{5-Chloro-2-[8-methoxy-3-(2-methoxy-ethyl)-2,3,4,5-tetrahydro-1H-benzo[d]azepin-7-ylamino]-pyrimidin-4-ylamino}-5-methoxy-N-methyl-benzamide]
IC50 [1, 7]: < 100 nM
IC50 [2, 8]: 1000 to 10000 nM

Compound: CNC(=O)c1ccccc1Nc1nc(Nc2cc3c(cc2OC)C(=O)N(C)CCC3)ncc1Cl [Example 107, 2-[5-Chloro-2-(8-methoxy-2-methyl-1-oxo-2,3,4,5-tetrahydro-1H-benzo[c]azepin-7-ylamino)-pyrimidin-4-ylamino]-N-methyl-benzamide]
IC50 ([1]; ALK kinase inhibition, 1 μM ATP (Km level), read-out: ALK Activity): < 100 nM
IC50 ([2]; c-Met kinase inhibition, 1 μM ATP (Km level), read-out: cMet Activity): 100 to 1000 nM

Compound: CN1CCN(C2CCc3ccc(Nc4ncc(Cl)c(Nc5ccccc5S(=O)(=O)N(C)C)n4)cc3CC2)CC1 (stereo not shown) [Example 890, 2-{5-Chloro-2-[7-(4-methyl-piperazin-1-yl)-6,7,8,9-tetrahydro-5H-benzocyclohepten-2-ylamino]-pyrimidin-4-ylamino}-N,N-dimethyl-benzenesulfonamide]
IC50 [1, 7]: < 100 nM
IC50 [2, 8]: 100 to 1000 nM

Compound: COc1cc2c(cc1Nc1ncc(Cl)c(Nc3ccc(N4CCOCC4)cc3OC)n1)CCN(CC(F)F)CC2 [Example 761, 5-Chloro-N*2*-[3-(2,2-difluoro-ethyl)-8-methoxy-2,3,4,5-tetrahydro-1H-benzo[d]azepin-7-yl]-N*4*-(2-methoxy-4-morpholin-4-yl-phenyl)-pyrimidine-2,4-diamine]
IC50 [2, 8]: > 10000 nM

Compound: COc1cc2c(cc1Nc1ncc(Cl)c(Nc3ccccc3OC)n1)CCN(CC(=O)N(C)C)CC2 [Example 1130, 2-{7-[5-Chloro-4-(2-methoxy-phenylamino)-pyrimidin-2-ylamino]-8-methoxy-1,2,4,5-tetrahydro-benzo[d]azepin-3-yl}-N,N-dimethyl-acetamide]
IC50 [2, 4]: > 10000 nM

Second part, the compound after the results:

IC50 [1, 3]: 100 to 1000 nM
IC50 [2, 4]: > 10000 nM
Compound: CCN1C(=O)C(N)CCc2c1ccc(Nc1ncc(Cl)c(N[C@@H]3CCCC[C@H]3NS(C)(=O)=O)n1)c2OC (stereo partly drawn) [Example 1338, N-{(1R,2R)-2-[2-(3-Amino-1-ethyl-6-methoxy-2-oxo-2,3,4,5-tetrahydro-1H-benzo[b]azepin-7-ylamino)-5-chloro-pyrimidin-4-ylamino]-cyclohexyl}-methanesulfonamide]

IC50 [1, 5]: 100 to 1000 nM
IC50 [2, 6]: 1000 to 10000 nM
Compound: COCCN1CCc2ccc(Nc3ncc(Cl)c(N[C@H]4CCC[C@H]4NS(C)(=O)=O)n3)cc2CC1 [Example 1501, N-((1R,2S)-2-{5-Chloro-2-[3-(2-methoxy-ethyl)-2,3,4,5-tetrahydro-1H-benzo[d]azepin-7-ylamino]-pyrimidin-4-ylamino}-cyclopentyl)-methanesulfonamide]

IC50 [1, 5]: < 100 nM
IC50 [2, 6]: < 100 nM
Compound: CNC(=O)c1cccc(F)c1Nc1nc(Nc2ccc3c(c2)N(CCOC)CCCC3(C)C)ncc1Cl [Example 1599, 2-{5-Chloro-2-[1-(2-methoxy-ethyl)-5,5-dimethyl-2,3,4,5-tetrahydro-1H-benzo[b]azepin-8-ylamino]-pyrimidin-4-ylamino}-3-fluoro-N-methyl-benzamide]

IC50 [1, 5]: < 100 nM
IC50 [2, 6]: < 100 nM
Compound: CCNC(=O)c1cccc(F)c1Nc1nc(Nc2ccc3c(c2)N(CC)C(=O)CCC3(C)C)ncc1Cl [Example 1579, 2-[5-Chloro-2-(1-ethyl-5,5-dimethyl-2-oxo-2,3,4,5-tetrahydro-1H-benzo[b]azepin-8-ylamino)-pyrimidin-4-ylamino]-N-ethyl-3-fluoro-benzamide]

IC50 [1, 5]: < 100 nM
IC50 [2, 6]: 100 to 1000 nM
Compound: C#CCNC(=O)c1cccc(F)c1Nc1nc(Nc2ccc3c(c2)N(CCN(C)C)CCCC3(C)C)ncc1Cl [Example 1639, 2-{5-Chloro-2-[1-(2-dimethylamino-ethyl)-5,5-dimethyl-2,3,4,5-tetrahydro-1H-benzo[b]azepin-8-ylamino]-pyrimidin-4-ylamino}-3-fluoro-N-prop-2-ynyl-benzamide]

IC50 [1, 3]: < 100 nM
IC50 [2, 4]: > 10000 nM
Compound: CNC(=O)CN1CCc2cc(Nc3ncc(Cl)c(Nc4ccccc4OC)n3)c(OC)cc2CC1 [Example 1135, 2-{7-[5-Chloro-4-(2-methoxy-phenylamino)-pyrimidin-2-ylamino]-8-methoxy-1,2,4,5-tetrahydro-benzo[d]azepin-3-yl}-N-methyl-acetamide]

IC50 [1, 3]: 100 to 1000 nM
IC50 [2, 4]: < 100 nM
Compound: CC(=O)N1CCC(=O)NCc2cc(Nc3ncc(Cl)c(Nc4c(C)cccc4OCC#N)n3)ccc21 [Example 1246, {2-[2-(1-Acetyl-4-oxo-1,2,3,4,5,6-hexahydro-benzo[b][1,5]diazocin-8-ylamino)-5-chloro-pyrimidin-4-ylamino]-3-methyl-phenoxy}-acetonitrile]

IC50 [1, 3]: 100 to 1000 nM
IC50 [2, 4]: 100 to 1000 nM
Compound: CNC(=O)c1sccc1Nc1nc(Nc2ccc3c(c2)OCCCN3C(=O)OC(C)C)ncc1Cl [Example 1435, 3-[5-Chloro-4-(2-methylcarbamoyl-thiophen-3-ylamino)-pyrimidin-2-ylamino]-7,8-dihydro-6H-5-oxa-9-aza-benzocycloheptene-9-carboxylic acid isopropyl ester]

IC50 [2, 4]: > 10000 nM
Compound: COc1cc2c(cc1Nc1ncc(Cl)c(Nc3ccc(C(N)=O)cc3OC)n1)CCN(CC(=O)N(C)C)CC2 [Example 1146, 4-[5-Chloro-2-(3-dimethylcarbamoylmethyl-8-methoxy-2,3,4,5-tetrahydro-1H-benzo[d]azepin-7-ylamino)-pyrimidin-4-ylamino]-3-methoxy-benzamide]

IC50 [2, 4]: > 10000 nM
Compound: COCCOc1ccc(Nc2nc(Nc3cc4c(cc3OC)CCN(CC(=O)N(C)C)CC4)ncc2Cl)c(OC)c1 [Example 1169, 2-(7-{5-Chloro-4-[2-methoxy-4-(2-methoxy-ethoxy)-phenylamino]-pyrimidin-2-ylamino}-8-methoxy-1,2,4,5-tetrahydro-benzo[d]azepin-3-yl)-N,N-dimethyl-acetamide]

— patent US8148391B2 (Cephalon, Inc., priority 2006, dated 2012)
